Legend:
[1] = log P determination by HPLC (EEC directive 79/831 Annex V.A8, reverse-phase C 18); conditions: for chromatographic logP: reverse-phase C18 HPLC column, pH 2.3; for logP: HPLC, reverse-phase C 18, 43° C., acidic range: 0.1% aqueous phosphoric acid/acetonitrile gradient (marked a))
weeds [2] = assay: Pre-emergence test (herbicidal activity); type: in vivo; conditions: soil sprayed 24 hours after sowing, rated after three weeks
weeds [3] = assay: Post-emergence test (herbicidal activity); type: in vivo; conditions: test plants of 5-15 cm sprayed, rated after three weeks
[4] = system: crop plants, such as corn and sugar beet; assay: Pre-emergence test (crop plant tolerance); type: in vivo; conditions: some crop plants, e.g. corn and sugar beet, rated after three weeks
[5] = system: crop plants, such as wheat; assay: Post-emergence test (crop plant tolerance); type: in vivo; conditions: some crop plants, e.g. wheat, rated after three weeks

Structure (SMILES): CCOC(=O)C1CCN(c2cc(-n3c(=O)cc(C(F)(F)F)[nH]c3=O)c(F)cc2C#N)CC1
- melting point: 124.5 °C

Structure (SMILES): CCOC(=O)C1CCN(c2cc(-n3c(=O)cc(C(F)(F)F)n(C)c3=O)c(F)cc2C#N)CC1 [Example 2, 3-[4-cyano-5-(4-ethoxycarbonylpiperidin-1-yl)-2-fluorophenyl]-1-methyl-6-trifluoromethyl-1H-pyrimidine-2,4-dione]
- chromatographic logP [1]: 3.23
- activity against weeds (degree of damage vs untreated control) (weeds [2]): very strong activity
- activity against weeds (degree of damage vs untreated control) (weeds [3]): very strong activity
- tolerance by crop plants [4]: tolerated well
- tolerance by crop plants [5]: tolerated well

Structure (SMILES): Cn1c(C(F)(F)F)cc(=O)n(-c2cc(N3C(=O)CN(C4CC4)C3=O)c(C#N)cc2F)c1=O [Example 3, 3-[4-cyano-2-fluoro-5-(1-cyclopropyl-2,4-dioxoimidazolidin-3-yl)phenyl]-1-methyl-6-trifluoromethyl-1H-pyrimidine-2,4-dione]
- chromatographic logP [1]: 2.25
- activity against weeds (degree of damage vs untreated control) (weeds [2]): very strong activity
- activity against weeds (degree of damage vs untreated control) (weeds [3]): very strong activity
- tolerance by crop plants [4]: tolerated well
- tolerance by crop plants [5]: tolerated well

Structure (SMILES): Cc1ccc(C)n1-c1cc(-n2c(=O)cc(C(F)(F)F)n(C)c2=O)c(F)cc1C#N [Example 4]
- tolerance by crop plants [4]: tolerated well
- tolerance by crop plants [5]: tolerated well

Structure (SMILES): Cn1c(C(F)(F)F)cc(=O)n(-c2cc(-n3cccc3)c(C#N)cc2F)c1=O [Example 5]
- tolerance by crop plants [4]: tolerated well
- tolerance by crop plants [5]: tolerated well

Structure (SMILES): Cn1c(C(F)(F)F)cc(=O)n(-c2cc(-n3ccc(C=O)c3)c(C#N)cc2F)c1=O [Example 6]
- logP [1]: m.p.: 174 °C logP = 2.25^a)
- tolerance by crop plants [4]: tolerated well
- tolerance by crop plants [5]: tolerated well

Structure (SMILES): CCOC(=O)CCN1CC(=O)N(c2cc(-n3c(=O)cc(C(F)(F)F)n(C)c3=O)c(F)cc2C#N)C1=O [Example 8]
- logP [1]: logP = 2.48^a)

Structure (SMILES): Cn1c(C(F)(F)F)cc(=O)n(-c2cc(N3C(=O)C4CCCCN4C3=O)c(C#N)cc2F)c1=O (stereo not drawn) [Example 9]
- logP [1]: logP = 2.42^a)
- tolerance by crop plants [4]: tolerated well
- tolerance by crop plants [5]: tolerated well

Structure (SMILES): CC1OC(=O)N(c2cc(-n3c(=O)cc(C(F)(F)F)n(C)c3=O)c(F)cc2C#N)C1=O (stereo not drawn) [Example 10]
- logP [1]: logP = 2.49^a)
- tolerance by crop plants [5]: tolerated well

Structure (SMILES): Cn1c(C(F)(F)F)cc(=O)n(-c2cc(N3C(=O)CSC3=O)c(C#N)cc2F)c1=O [Example 11]
- logP [1]: logP = 2.36^a)
- activity against weeds (degree of damage vs untreated control) (weeds [3]): very strong activity
- tolerance by crop plants [5]: tolerated well

Structure (SMILES): Cn1c(C(F)(F)F)cc(=O)n(-c2cc(N3C(=O)COC3=O)c(C#N)cc2F)c1=O [Example 12]
- tolerance by crop plants [5]: tolerated well

Structure (SMILES): CCOC(=O)C1CCN(c2cc(-n3c(=O)cc(C(F)(F)F)n(N)c3=O)c(F)cc2C#N)CC1 [Example 16]
- logP [1]: logP = 2.89^a)
- activity against weeds (degree of damage vs untreated control) (weeds [2]): very strong activity
- activity against weeds (degree of damage vs untreated control) (weeds [3]): very strong activity
- tolerance by crop plants [4]: tolerated well
- tolerance by crop plants [5]: tolerated well

Structure (SMILES): N#Cc1cc(F)c(-n2c(=O)cc(C(F)(F)F)[nH]c2=O)cc1N1CCC(O)CC1 [Example 18]
- logP [1]: logP = 1.62^a)

Structure (SMILES): Cn1c(C(F)(F)F)cc(=O)n(-c2cc(N3CCC(O)CC3)c(C#N)cc2F)c1=O [Example 20]
- logP [1]: logP = 3.97^a)
- activity against weeds (degree of damage vs untreated control) (weeds [2]): very strong activity
- activity against weeds (degree of damage vs untreated control) (weeds [3]): very strong activity
- tolerance by crop plants [4]: tolerated well
- tolerance by crop plants [5]: tolerated well

Structure (SMILES): CCOC(=O)C1CCCN(c2cc(-n3c(=O)cc(C(F)(F)F)[nH]c3=O)c(F)cc2C#N)C1 (stereo not drawn) [Example 24]
- logP [1]: logP = 3.31^a)
- tolerance by crop plants [4]: tolerated well
- tolerance by crop plants [5]: tolerated well

Structure (SMILES): COC(=O)C1CCN(c2cc(-n3c(=O)cc(C(F)(F)F)n(C)c3=O)c(F)cc2C#N)CC1 [Example 28]
- logP [1]: logP = 2.88^a)
- activity against weeds (degree of damage vs untreated control) (weeds [2]): very strong activity
- activity against weeds (degree of damage vs untreated control) (weeds [3]): very strong activity
- tolerance by crop plants [4]: tolerated well
- tolerance by crop plants [5]: tolerated well

Structure (SMILES): Cn1c(C(F)(F)F)cc(=O)n(-c2cc(N3CCC(O)C3)c(C#N)cc2F)c1=O (stereo not drawn) [Example 31]
- logP [1]: logP = 2.02^a)
- activity against weeds (degree of damage vs untreated control) (weeds [2]): very strong activity
- activity against weeds (degree of damage vs untreated control) (weeds [3]): very strong activity
- tolerance by crop plants [4]: tolerated well
- tolerance by crop plants [5]: tolerated well

Structure (SMILES): Cn1c(C(F)(F)F)cc(=O)n(-c2cc(N3CCC4(CC3)OCCO4)c(C#N)cc2F)c1=O [Example 34]
- logP [1]: logP = 2.67^a)

Structure (SMILES): N#Cc1cc(F)c(-n2c(=O)cc(C(F)(F)F)n(N)c2=O)cc1N1CCC2(CC1)OCCO2 [Example 35]
- logP [1]: logP = 2.37^a)

Structure (SMILES): Cn1c(C(F)(F)F)cc(=O)n(-c2cc(N3CCC(C(F)(F)F)CC3)c(C#N)cc2F)c1=O [Example 37]
- logP [1]: logP = 3.52^a)

Structure (SMILES): N#Cc1cc(F)c(-n2c(=O)cc(C(F)(F)F)[nH]c2=O)cc1N1CCC(C#N)CC1 [Example 38]
- logP [1]: logP = 2.08^a)

Structure (SMILES): Cn1c(C(F)(F)F)cc(=O)n(-c2cc(N3CCC4(CC3)OCCCO4)c(C#N)cc2F)c1=O [Example 40]
- logP [1]: logP = 2.69^a)

Structure (SMILES): N#Cc1cc(F)c(-n2c(=O)cc(C(F)(F)F)n(N)c2=O)cc1N1CCC2(CC1)OCCCO2 [Example 41]
- logP [1]: logP = 2.40^a)

Structure (SMILES): N#Cc1cc(F)c(-n2c(=O)cc(C(F)(F)F)[nH]c2=O)cc1N1CCC(C(F)(F)F)CC1 [Example 42]
- logP [1]: logP = 2.96^a)

Structure (SMILES): Cn1c(C(F)(F)F)nn(-c2cc(N3CCC4(CC3)OCCO4)c(C#N)cc2F)c1=O [Example 50]
- logP [1]: logP = 2.81^a)

Structure (SMILES): CCOC(=O)C1CCN(c2cc(N3C(=O)C4=C(CCCC4)C3=O)c(F)cc2C#N)CC1 [Example 59]
- logP [1]: logP = 3.77^a)

Structure (SMILES): CCOC(=O)C1CCN(c2cc(N3C(=O)C(C)=C(C)C3=O)c(F)cc2C#N)CC1 [Example 64]
- logP [1]: logP = 3.37^a)

Structure (SMILES): CCOC(=O)C1CCCN(c2cc(-n3c(=O)cc(C(F)(F)F)n(C)c3=O)c(F)cc2Cl)C1 (stereo not drawn) [Example 68]
- logP [1]: logP = 3.87^a)

Structure (SMILES): CCOC(=O)C1CCCCN1c1cc(-n2c(=O)cc(C(F)(F)F)n(C)c2=O)c(F)cc1Cl (stereo not drawn) [Example 69]
- logP [1]: logP = 4.07^a)

Structure (SMILES): CCOC(=O)C1CCCN(c2cc(-n3c(=O)cc(C(F)(F)F)n(C)c3=O)c(F)cc2Br)C1 (stereo not drawn) [Example 73]
- logP [1]: logP = 3.99^a)

Structure (SMILES): CCOC(=O)C1CCCCN1c1cc(-n2c(=O)cc(C(F)(F)F)n(C)c2=O)c(F)cc1Br (stereo not drawn) [Example 74]
- logP [1]: logP = 4.18^a)

Structure (SMILES): CCOC(=O)C1CCCN1c1cc(-n2c(=O)cc(C(F)(F)F)n(C)c2=O)c(F)cc1Br (stereo not drawn) [Example 82]
- logP [1]: logP = 3.61^a)

Structure (SMILES): CCOC(=O)C1CCCN1c1cc(-n2c(=O)cc(C(F)(F)F)n(C)c2=O)c(F)cc1Cl (stereo not drawn) [Example 83]
- logP [1]: logP = 3.49^a)

Structure (SMILES): CCOC(=O)C1CCCN1c1cc(-n2c(=O)cc(C(F)(F)F)n(C)c2=O)c(F)cc1C#N (stereo not drawn) [Example 84]
- logP [1]: logP = 3.01^a)

From patent US20060148649A1, “Substituted n-aryl nitrogen heterocycles” (priority 2003, published 2006)
